The values that follow come from patent US8263598B2, “Substituted sulfonamide compounds” (Gruenenthal GmbH, priority 2008, dated 2012).

Test [1] has as its target T1, human B1R receptor (hB1R) (Homo sapiens, UniProt P46663).
T1 construct: host or cells: CHO K1 cells
T1 sequence (P46663 1-353): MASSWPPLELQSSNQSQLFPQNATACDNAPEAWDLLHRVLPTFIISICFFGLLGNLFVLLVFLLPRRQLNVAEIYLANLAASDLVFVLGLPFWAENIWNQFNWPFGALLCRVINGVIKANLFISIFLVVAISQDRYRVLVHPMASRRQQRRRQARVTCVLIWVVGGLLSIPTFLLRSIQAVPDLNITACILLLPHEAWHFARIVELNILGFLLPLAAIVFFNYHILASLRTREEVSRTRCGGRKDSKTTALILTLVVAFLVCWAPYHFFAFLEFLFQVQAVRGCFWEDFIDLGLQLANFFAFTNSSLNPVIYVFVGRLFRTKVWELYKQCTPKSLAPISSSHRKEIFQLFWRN
As to the kind of experiment: FLIPR Ca2+ assay on human bradykinin 1 receptor (CHO K1 hB1R cells). The format is cell-based. The settings on record: test substance 10 μM; CHO K1 cells with human B1R gene; agonist Lys-Des-Arg9-bradykinin 0.5 nM; compared to maximum achievable inhibition. The gist of the method:
(§1)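 CHO K1 cells stably expressing human or rat B1R were loaded with Fluo-4 and tested at 10 μM compound. Ca²⁺ signal was read in FLIPR as % activation versus agonist. After 10 min, agonist was added (hB1R: Lys-Des-Arg9-bradykinin 0.5 nM; rB1R: Des-Arg9-bradykinin 100 nM), and % inhibition was taken relative to maximum achievable inhibition.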

Test [2] concerns the target T2, B1R receptor of rats (rB1R) (Rattus norvegicus, UniProt P97583).
T2 construct: host or cells: CHO K1 cells
T2 sequence (P97583 1-337): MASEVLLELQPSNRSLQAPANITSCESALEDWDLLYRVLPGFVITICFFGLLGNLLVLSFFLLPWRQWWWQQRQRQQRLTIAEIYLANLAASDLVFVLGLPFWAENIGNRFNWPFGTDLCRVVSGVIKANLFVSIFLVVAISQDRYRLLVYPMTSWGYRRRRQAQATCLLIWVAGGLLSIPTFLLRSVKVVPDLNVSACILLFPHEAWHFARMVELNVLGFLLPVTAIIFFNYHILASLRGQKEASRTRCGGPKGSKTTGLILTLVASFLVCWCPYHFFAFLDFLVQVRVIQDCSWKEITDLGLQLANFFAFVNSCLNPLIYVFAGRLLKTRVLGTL
As to the kind of experiment: FLIPR Ca2+ assay on rat bradykinin 1 receptor (CHO K1 rB1R cells). The format is cell-based. As to conditions: test substance 10 μM; CHO K1 cells with B1R gene of rats; agonist Des-Arg9-bradykinin 100 nM; compared to maximum achievable inhibition. The procedure, abridged: as §1

Broadly, the inhibition is the drop in the measured response relative to a control, in per cent. Consider `COc1cc(C)c(S(=O)(=O)N(CCOCC(=O)N2CCn3c(CN4CCOCC4)ccc3C2c2ccccc2)CC(C)C)c(C)c1C` (stereo not drawn) [Example 94, N-isobutyl-4-methoxy-2,3,6-trimethyl-N-(2-(2-(6-(morpholinomethyl)-1-phenyl-3,4-dihydropyrrolo[1,2-a]pyrazin-2(1H)-yl)-2-oxoethoxy)ethyl)benzene-sulfonamide], for which the inhibition at 10 µM stood at 104% in test [1] and 102% in test [2].

In the case of `COc1c(C)cc(S(=O)(=O)N(C)CCOCC(=O)N2CCn3cccc3C2c2cccs2)c(C)c1C` (stereo not drawn) [Example 36, 4-methoxy-N,2,3,5-tetramethyl-N-(2-(2-oxo-2-(1-(thiophen-2-yl)-3,4-dihydropyrrolo[1,2-a]pyrazin-2(1H)-yl)ethoxy)ethyl)benzenesulfonamide], the inhibition at 10 µM in test [1] was 97%; in test [2], 85%.

Regarding `COc1cc(C)c(S(=O)(=O)N(C)CCOCC(=O)N2CCn3c(CN(C)C)ccc3C2c2ccccc2)c(C)c1C` (stereo not drawn) [Example 1, N-(2-(2-(6-((dimethylamino)methyl)-1-phenyl-3,4-dihydropyrrolo[1,2-a]pyrazin-2(1H)-yl)-2-oxoethoxy)ethyl)-4-methoxy-N,2,3,6-tetramethylbenzene-sulfonamide], the figures for the inhibition at 10 µM in test [1] and in test [2] were 89% and 58%, respectively.

On to `COc1ccc(C2c3cccn3CCN2C(=O)COCCN(C)S(=O)(=O)c2cc(C)c(OC)c(C)c2C)cc1` (stereo not drawn) [Example 31, 4-methoxy-N-(2-(2-(1-(4-methoxyphenyl)-3,4-dihydropyrrolo[1,2-a]pyrazin-2(1H)-yl)-2-oxoethoxy)ethyl)-N,2,3,5-tetramethylbenzenesulfonamide], for which the inhibition at 10 µM came to 95% in test [1] and 67% in test [2].

With `Cc1cc(C)c(S(=O)(=O)N(C)CCOCC(=O)N2CCn3cccc3C2c2cccnc2)c(C)c1` (stereo not drawn) [Example 67, N,2,4,6-tetramethyl-N-(2-(2-oxo-2-(1-(pyridin-3-yl)-3,4-dihydropyrrolo[1,2-a]pyrazin-2(1H)-yl)ethoxy)ethyl)benzenesulfonamide], the inhibition at 10 µM in test [1] was determined as 99%; in test [2], 100%.

Consider `COc1cc(C)c(S(=O)(=O)N(C)CCOCC(=O)N2CCn3c(nc(CN4CCCCC4)c3Cl)C2)c(C)c1` [Example 6, N-(2-(2-(3-chloro-2-(piperidin-1-ylmethyl)-5,6-dihydroimidazo[1,2-a]pyrazin-7(8H)-yl)-2-oxoethoxy)ethyl)-4-methoxy-N,2,6-trimethylbenzenesulfonamide], for which the figures for the inhibition at 10 µM in test [1] and in test [2] were 100% and 99%, respectively.

As for `COc1c(C)cc(S(=O)(=O)N(C)CCOCC(=O)N2CCn3cccc3C2c2ccccc2)c(C)c1C` (stereo not drawn) [Example 32, 4-methoxy-N,2,3,5-tetramethyl-N-(2-(2-oxo-2-(1-phenyl-3,4-dihydropyrrolo[1,2-a]pyrazin-2(1H)-yl)ethoxy)ethyl)benzenesulfonamide], the inhibition at 10 µM in test [1] was found to be 78%; in test [2], 99%.

For the molecule `COc1cc(C)c(S(=O)(=O)N(C)CCOCC(=O)N2CCn3cccc3C2CCc2ccccc2)c(C)c1C` (stereo not drawn) [Example 148, 4-methoxy-N,2,3,6-tetramethyl-N-(2-(2-oxo-2-(1-phenethyl-3,4-dihydropyrrolo[1,2-a]pyrazin-2(1H)-yl)ethoxy)ethyl)benzenesulfonamide], the figures for the inhibition at 10 µM in test [1] and in test [2] were 100% and 98%, respectively.

On to `COc1cc(C)c(S(=O)(=O)N(C)CCOCC(=O)N2CCn3cccc3C2c2ccccc2)c(C)c1C` (stereo not drawn) [Example 84, 4-methoxy-N,2,3,6-tetramethyl-N-(2-(2-oxo-2-(1-phenyl-3,4-dihydropyrrolo[1,2-a]pyrazin-2(1H)-yl)ethoxy)ethyl)benzenesulfonamide], for which the inhibition at 10 µM in test [1] was found to be 101%; in test [2], 99%.
